Data taken from patent US20210392892A1, “COMPOSITIONS COMPRISING PYRIDINE CARBOXYLATE HERBICIDES AND ACETYL COA CARBOXYLASE (ACCASE) INHIBITOR HERBICIDES” (Corteva Agriscience LLC, priority 2018, published 2021).

Assays:
Assay in all cases: Greenhouse postemergence herbicidal effect (visual injury)
Assay type in all cases: in vivo
[1] = tested on: IPOHE, Ipomoea hederacea (ivyleaf morningglory)
Excerpt: (§1) Seeds of the desired test plant species were planted in a 90:10% v/v (volume/volume) mixture of PRO-MIX® BX (Premier Tech Horticulture, Quakertown, Pa., USA) and PROFILE® GREENS GRADE™ (Profile Products LLC, Buffalo Grove, Ill., USA) planting mixture, which typically has a pH of 5.2 to 6.2 and an organic matter content of at least 50 percent, in plastic pots with a surface area of 103.2 square centimeters (cm^2). In some aspects, to help ensure good germination and healthy plants, a fungicide treatment and/or other chemical or physical treatment was applied. The plants were grown for 7-36 days (d) in a greenhouse with an approximate 14-hour (h) photoperiod which was maintained at about 23° C. during the day and 22° C. during the night. Nutrients and water were added on a regular basis and supplemental lighting was provided with overhead metal halide 1000-Watt lamps as necessary. The plants were employed for testing when they reached the second or third true leaf stage.
(§2) Emulsifiable concentrates of each of each pyridine carboxylate herbicide (Compound A or Compound B) were prepared at 100 grams acid equivalent per liter (g ae/L). The emulsifiable concentrates also included a safener, cloquintocet-mexyl, at 120 grams active ingredient per liter (g ai/L), unless otherwise noted below. An aliquot of each emulsifiable concentrate was placed in a 25 mL glass vial and diluted with an aqueous mixture of 1.25% (v/v) ACTIROB® B esterified rapeseed oil (Bayer Crop Science, Research Triangle Park, N.C., USA) or MSO® Concentrate with LECI-TECH® methylated soybean oil (Loveland Products, Loveland, Colo., USA) to obtain concentrated stock solutions at the highest application rate for each herbicide, based upon a 12 milliliter (mL) application volume at a rate of 187 liters per hectare (L/ha). The concentrated stock solutions were further diluted with an aqueous mixture of 1.25% v/v ACTIROB® B or MSO® Concentrate with LECI-TECH® to obtain stock solutions at reduced application rates for each herbicide. Spray solutions of the herbicide combinations (Compound A or Compound B plus ACCase inhibitor herbicide) were prepared by adding weighed amounts or aliquots of the ACCase inhibitor herbicide to the stock solutions of Compound A or Compound B to form 12-mL spray solutions in two-way combinations.
(§3) The spray solutions were applied to the plant material with an overhead Mandel track sprayer equipped with 8002E nozzles calibrated to deliver 187 L/ha over an application area of 0.503 square meters (m^2) at a spray height of 18 inches (43 centimeters (cm)) above the average plant canopy. Control plants were sprayed in the same manner with the solvent blank. All pyridine carboxylate herbicide (component a) application rates are given as “g ae/ha” and all ACCase inhibitor herbicide (component b) application rates are given as “g ai/ha.”
(§4) The treated plants and control plants were placed in a greenhouse as described above and watered by sub-irrigation to prevent wash-off of the test compounds. After 20-22 d, the condition of the test plants as compared with that of the control plants was determined visually and scored on a scale of 0 to 100 percent where 0 corresponds to no injury and 100 corresponds to complete kill.

[2] = tested on: POLCO, Polygonum convolvulus (wild buckwheat)
Excerpt: as §1, §2, §3, §4

[3] = tested on: ABUTH, Abutilon theophrasti (velvetleaf)
Excerpt: as §1, §2, §3, §4

[4] = tested on: BRSNN, Brassica napus (spring rape); details: with cloquintocet-mexyl
Excerpt: as §1, §2, §3, §4

[5] = tested on: BRAPP, Brachiaria platyphylla (broadleaf signalgrass); details: with cloquintocet-mexyl
Excerpt: as §1, §2, §3, §4

[6] = tested on: SETFA, Setaria faberi (giant foxtail)
Excerpt: as §1, §2, §3, §4

[7] = tested on: KCHSC, Kochia scoparia (kochia)
Excerpt: as §1, §2, §3, §4

[8] = tested on: ZEAMX, Zea mays (maize); details: with cloquintocet-mexyl
Excerpt: as §1, §2, §3, §4

[9] = tested on: STEME, Stellaria media (chickweed)
Excerpt: as §1, §2, §3, §4

[10] = tested on: SORVU, Sorghum vulgare (grain sorghum)
Excerpt: as §1, §2, §3, §4

[11] = tested on: HELAN, Helianthus annuus (common sunflower)
Excerpt: as §1, §2, §3, §4

[12] = tested on: BRSNW, Brassica napus (winter rape)
Excerpt: as §1, §2, §3, §4

[13] = tested on: GLXMA, Glycine max (soybean)
Excerpt: as §1, §2, §3, §4

[14] = tested on: RUMOB, Rumex obtusifolius (broad-leaf dock)
Excerpt: as §1, §2, §3, §4

[15] = tested on: CIRAR, Cirsium arvense (Canadian thistle)
Excerpt: as §1, §2, §3, §4

[16] = 7.5 g ae/ha, without cloquintocet-mexyl
[17] = 10 g ae/ha, without cloquintocet-mexyl
[18] = 7.5 g ae/ha, with cloquintocet-mexyl
[19] = 10 g ae/ha, with cloquintocet-mexyl

## N#CCOC(=O)c1nc(-c2ccc3cc[nH]c3c2F)c(F)c(N)c1Cl [Compound A, cyanomethyl 4-amino-3-chloro-5-fluoro-6-(7-fluoro-1H-indol-6-yl)pyridine-2-carboxylate]
[1]; [16]
  % visual injury, Obs: 10%
[1]; [17]
  % visual injury, Obs: 15%
[1]; IPOHE, Compound A 7.5 g/ha, Fluazifop 0 g/ha
  % visual injury, Obs: 10%
[1]; IPOHE, Compound A 10 g/ha, Fluazifop 0 g/ha
  % visual injury, Obs: 15%
[2]; [16]
  % visual injury, Obs: 80%
[2]; [17]
  % visual injury, Obs: 78%
[2]; POLCO, Compound A 7.5 g/ha, Fluazifop 0 g/ha
  % visual injury, Obs: 80%
[2]; POLCO, Compound A 10 g/ha, Fluazifop 0 g/ha
  % visual injury, Obs: 78%
[3]; [16]
  % visual injury, Obs: 70%
[3]; [17]
  % visual injury, Obs: 75%
[3]; ABUTH, Compound A 7.5 g/ha, Fluazifop 0 g/ha
  % visual injury, Obs: 70%
[3]; ABUTH, Compound A 10 g/ha, Fluazifop 0 g/ha
  % visual injury, Obs: 75%
[4]; 7.5 g ae/ha
  % visual injury, Obs: 23%
[4]; 10 g ae/ha
  % visual injury, Obs: 45%
[5]; 7.5 g ae/ha
  % visual injury, Obs: 43%
[5]; 10 g ae/ha
  % visual injury, Obs: 68%
[6]; [18]
  % visual injury, Obs: 0%
[6]; [19]
  % visual injury, Obs: 0%
[6]; SETFA, Compound A 7.5 g/ha, Fluazifop 0 g/ha
  % visual injury, Obs: 0%
[6]; SETFA, Compound A 7.5 g/ha, Haloxyfop-R-methyl 0 g/ha
  % visual injury, Obs: 63%
[6]; SETFA, Compound A 7.5 g/ha, Quizalofop-P-ethyl 0 g/ha
  % visual injury, Obs: 63%
[6]; SETFA, Compound A 10 g/ha, Fluazifop 0 g/ha
  % visual injury, Obs: 0%
[6]; SETFA, Compound A 10 g/ha, Haloxyfop-R-methyl 0 g/ha
  % visual injury, Obs: 60%
[6]; SETFA, Compound A 10 g/ha, Quizalofop-P-ethyl 0 g/ha
  % visual injury, Obs: 60%
[7]; [18]
  % visual injury, Obs: 63%
[7]; [16]
  % visual injury, Obs: 73%
[7]; [19]
  % visual injury, Obs: 70%
[7]; [17]
  % visual injury, Obs: 88%
[7]; KCHSC, Compound A 7.5 g/ha, Fluazifop 0 g/ha
  % visual injury, Obs: 73%
[7]; KCHSC, Compound A 10 g/ha, Fluazifop 0 g/ha
  % visual injury, Obs: 88%
[8]; 7.5 g ae/ha
  % visual injury, Obs: 0%
[8]; 10 g ae/ha
  % visual injury, Obs: 0%
[9]; [18]
  % visual injury, Obs: 90%
[9]; [16]
  % visual injury, Obs: 73%
[9]; [19]
  % visual injury, Obs: 85%
[9]; [17]
  % visual injury, Obs: 88%
[9]; STEME, Compound A 7.5 g/ha, Fluazifop 0 g/ha
  % visual injury, Obs: 73%
[9]; STEME, Compound A 10 g/ha, Fluazifop 0 g/ha
  % visual injury, Obs: 88%
[10]; [16]
  % visual injury, Obs: 0%
[10]; [17]
  % visual injury, Obs: 0%
[10]; SORVU, Compound A 7.5 g/ha, Fluazifop 0 g/ha
  % visual injury, Obs: 0%
[10]; SORVU, Compound A 10 g/ha, Fluazifop 0 g/ha
  % visual injury, Obs: 0%
[11]; [16]
  % visual injury, Obs: 95%
[11]; [17]
  % visual injury, Obs: 100%
[11]; HELAN, Compound A 7.5 g/ha, Fluazifop 0 g/ha
  % visual injury, Obs: 95%
[11]; HELAN, Compound A 10 g/ha, Fluazifop 0 g/ha
  % visual injury, Obs: 100%
[12]; [16]
  % visual injury, Obs: 50%
[12]; [17]
  % visual injury, Obs: 65%
[12]; BRSNW, Compound A 7.5 g/ha, Fluazifop 0 g/ha
  % visual injury, Obs: 50%
[12]; BRSNW, Compound A 10 g/ha, Fluazifop 0 g/ha
  % visual injury, Obs: 65%
[13]; [16]
  % visual injury, Obs: 85%
[13]; [17]
  % visual injury, Obs: 85%
[13]; GLXMA, Compound A 7.5 g/ha, Fluazifop 0 g/ha
  % visual injury, Obs: 85%
[13]; GLXMA, Compound A 10 g/ha, Fluazifop 0 g/ha
  % visual injury, Obs: 85%
[14]; [18]
  % visual injury, Obs: 13%
[14]; [16]
  % visual injury, Obs: 38%
[14]; [19]
  % visual injury, Obs: 8%
[14]; [17]
  % visual injury, Obs: 35%
[14]; RUMOB, Compound A 7.5 g/ha, Fluazifop 0 g/ha
  % visual injury, Obs: 38%
[14]; RUMOB, Compound A 10 g/ha, Fluazifop 0 g/ha
  % visual injury, Obs: 35%
[15]; [16]
  % visual injury, Obs: 40%
[15]; [17]
  % visual injury, Obs: 28%
[15]; CIRAR, Compound A 7.5 g/ha, Fluazifop 0 g/ha
  % visual injury, Obs: 40%
[15]; CIRAR, Compound A 10 g/ha, Fluazifop 0 g/ha
  % visual injury, Obs: 28%
